{"source": "patent US7951990B2", "about": "“Method and means for determining fitness in plants” (Bayer Bioscience N.V., priority 2001, dated 2011)", "assay_type_in_all_cases": "cell-based, Brassica napus", "key": {"[1]": {"system": "cytochromal and alternative respiratory pathways"}, "[2]": {"system": "superoxide production by the hypocotyl explants", "assay": "quantification of superoxide production by hypocotyl explants (XTT reduction)", "conditions": "25 mg/l, incubation for 18 hours; all four hybrid lines"}, "[3]": {"system": "electron flow in the mitochondrial electron transport chain (TTC-reducing capacity of hypocotyl explants)", "assay": "vigour assay (TTC-assay) with acetylsalicylic acid added to the incubation medium", "conditions": "for TTC-reducing capacity after treatment versus control condition / TTC-reducing capacity after treatment: 25 mg/l; for TTC-reducing capacity after treatment versus control condition: about 18 hours"}}}
{"smiles": "O=C(NO)c1ccccc1O", "note": "[SHAM, salicylhydroxamic acid]", "values": [{"measurement": "influence on the TTC reduction", "setting": "[1]", "result": "does not seem to have a major influence"}]}
{"smiles": "CC(=O)Oc1ccccc1C(=O)O", "note": "[acetylsalicylic acid]", "values": [{"measurement": "XTT reduction (superoxides)", "setting": "[2]", "result": "lower amounts of XTT were reduced"}, {"measurement": "TTC-reducing capacity after treatment versus control condition", "setting": "[3]; hybrid line 13 (lowest seed yield)", "result": "increased drastically"}, {"measurement": "TTC-reducing capacity after treatment versus control condition", "setting": "[3]; hybrid line 41 (highest seed yield)", "result": "strongest decrease"}, {"measurement": "TTC-reducing capacity after treatment", "setting": "[3]; parental line DH7 (poor combining ability)", "result": "high increase"}, {"measurement": "TTC-reducing capacity after treatment", "setting": "[3]; parental lines A and B (excellent combining ability)", "result": "decreased"}, {"measurement": "TTC-reducing capacity after treatment", "setting": "[3]; parental lines DH4, DH5 and DH10 (moderate to good combining ability)", "result": "no or only a small increase"}, {"measurement": "TTC-reducing capacity", "setting": "[3]; 50 mg/l, best performing hybrid lines", "result": "increased"}, {"measurement": "TTC-reducing capacity", "setting": "[3]; 50 mg/l, hybrid lines with a less pronounced heterosis", "result": "didn't show at 50 mg/l acetylsalicylic acid this increase"}, {"measurement": "TTC-reducing capacity", "setting": "[3]; 100 mg/l, best performing hybrid lines", "result": "decrease again"}]}
